Results reported in ChEMBL document CHEMBL1201861, “Genomics of Drug Sensitity in Cancer screening data, Wellcome Trust Sanger Institute”.

Columns and labels:
Type in all cases: functional, cell-based
[1] = test system: SNU-16; test: cells; details: Homo sapiens;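 also: growth inhibition of human SNU-16 cells, determined with a cell viability readout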
Description: SANGER: Inhibition of human NCI-SNU-16 cell growth in a cell viability assay.

[2] = test system: A253 cell line; test: cells; details: Homo sapiens;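 also: growth inhibition of A253 cells, read out with a cell viability assay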
Description: SANGER: Inhibition of human A253 cell growth in a cell viability assay.

[3] = test system: SUP-T1; test: cells; details: Homo sapiens;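 also: growth inhibition of human SUP-T1 cells, read out as cell viability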
Description: SANGER: Inhibition of human SUP-T1 cell growth in a cell viability assay.

[4] = test system: NB1; test: cells; details: Homo sapiens;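 also: reduction of NB1 cell proliferation, read out with a viability assay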
Description: SANGER: Inhibition of human NB1 cell growth in a cell viability assay.

[5] = test system: IMR-5; test: cells; details: Homo sapiens;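 also: growth inhibition of human IMR-5 cells, read out with a cell viability assay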
Description: SANGER: Inhibition of human IMR-5 cell growth in a cell viability assay.

[6] = test system: NCI-H524; test: cells; details: Homo sapiens;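 also: growth inhibition of human NCI-H524 cells, read out through a cell viability assay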
Description: SANGER: Inhibition of human NCI-H524 cell growth in a cell viability assay.

[7] = test system: CA46; test: cells; details: Homo sapiens;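 also: growth inhibition of human CA46 cells, read out by a cell viability assay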
Description: SANGER: Inhibition of human CA46 cell growth in a cell viability assay.

[8] = test system: ST486; test: SANGER: Inhibition of human ST486 cell growth in a cell viability assay.
[9] = test system: NCI-H2081; test: cells; details: Homo sapiens;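 also: growth inhibition of human NCI-H2081 cells, read out with a cell viability assay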
Description: SANGER: Inhibition of human NCI-H2081 cell growth in a cell viability assay.

[10] = test system: MHH-CALL-2; test: cells; details: Homo sapiens;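 also: growth inhibition of the cell line, read out in a cell viability assay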
Description: SANGER: Inhibition of human MHH-CALL-2 cell growth in a cell viability assay.

[11] = test system: TE-441-T; test: cells; details: Homo sapiens
Description: SANGER: Inhibition of human TE-441-T cell growth in a cell viability assay.

[12] = test system: CHP-126; test: cells; details: Homo sapiens
Description: SANGER: Inhibition of human CHP-126 cell growth in a cell viability assay.

[13] = test system: NCI-H716; test: cells; details: Homo sapiens;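 also: growth inhibition of human NCI-H716 cells, measured by a cell viability assay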
Description: SANGER: Inhibition of human NCI-H716 cell growth in a cell viability assay.

[14] = test system: NCI-H2196; test: cells; details: Homo sapiens;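 also: cell viability assay used as the readout of growth inhibition in NCI-H2196 cells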
Description: SANGER: Inhibition of human NCI-H2196 cell growth in a cell viability assay.

[15] = test system: COR-L279; test: SANGER: Inhibition of human COR-L279 cell growth in a cell viability assay.
[16] = test system: CESS; test: SANGER: Inhibition of human CESS cell growth in a cell viability assay.
[17] = test system: BC1 cell line; test: SANGER: Inhibition of human BC-1 cell growth in a cell viability assay.
[18] = test system: RPMI 8402; test: SANGER: Inhibition of human RPMI-8402 cell growth in a cell viability assay.
[19] = test system: CAL-148; test: cells; details: Homo sapiens
Description: SANGER: Inhibition of human CAL-148 cell growth in a cell viability assay.

SMILES	IC50 [1] [nM]	IC50 [2] [nM]	IC50 [3] [nM]	IC50 [4] [nM]	IC50 [5] [nM]	IC50 [6] [nM]	IC50 [7] [nM]	IC50 [8] [nM]	IC50 [9] [nM]	IC50 [10] [nM]	IC50 [11] [nM]	IC50 [12] [nM]	IC50 [13] [nM]	IC50 [14] [nM]	IC50 [15] [nM]	IC50 [16] [nM]	IC50 [17] [nM]	IC50 [18] [nM]	IC50 [19] [nM]
Cc1n[nH]c2ccc(-c3cncc(OC[C@@H](N)Cc4c[nH]c5ccccc45)c3)cc12 [A-443654]	> 1020	393	> 1020	117	600	860	> 1020	204	> 1020	> 1020	798	267	> 1020	648	570	191	701	184	88.3
Cc1nc(Nc2ncc(C(=O)Nc3c(C)cccc3Cl)s2)cc(N2CCN(CCO)CC2)n1 [DASATINIB]	> 1280	> 1280	> 1280	> 1280	> 1280	> 1280	> 1280	> 1280	> 1280	> 1280	> 1280	> 1280	> 1280	> 1280	> 1280	> 1280	> 1280	> 1280	> 1280
CCn1c(-c2nonc2N)nc2cnc(Oc3cccc(NC(=O)c4ccc(OCCN5CCOCC5)cc4)c3)cc21 [GSK-269962A]	> 2500	> 2500	> 2500	> 2500	> 2500	> 2500	> 2500	> 2500	> 2500	> 2500	> 2500	> 2500	> 2500	> 2500	2070	> 2500	> 2500	> 2500	> 2500
Cc1[nH]c(/C=C2\C(=O)Nc3ccc(S(=O)(=O)Cc4c(Cl)cccc4Cl)cc32)c(C)c1C(=O)N1CCC[C@@H]1CN1CCCC1 [PHA-665752]	> 2000	> 2000	> 2000	> 2000	> 2000	> 2000	> 2000	> 2000	> 2000	> 2000	> 2000	> 2000	> 2000	> 2000	> 2000	> 2000	> 2000	> 2000	> 2000
